In series [1] the test system is Staphylococcus aureus. The series can be described thus: Growth inhibition of Staphylococcus aureus ATCC 29213 incubated in MHB broth for 24 hrs. It counts as organism-based.
Series [2] has as its system Enterococcus faecalis. Briefly: Growth inhibition of Enterococcus faecalis ATCC 29212 incubated in MHB broth for 24 hrs. It counts as organism-based.
The test system of series [3] is Streptococcus pneumoniae. The series can be described thus: Growth inhibition of Streptococcus pneumoniae ATCC 49619 incubated in MHB medium with lysed horse blood and 5% CO2 for 24 hrs. It counts as organism-based.
Series [4] deals with Clostridioides difficile. Briefly: Antibacterial activity against Clostridium difficile ATCC 700057 incubated for 2 to 4 hrs in pre-reduced brucella broth supplemented with haemin/vitamin K and further incubation in anaerobic condition for 48 hrs. Format: functional.
In series [5] the test system is Clostridioides difficile. Briefly: Antibacterial activity against Clostridium difficile NSW132 RT027 incubated for 2 to 4 hrs in pre-reduced brucella broth supplemented with haemin/vitamin K and further incubation in anaerobic condition for 48 hrs. Format: functional.
For series [6], the system named is Escherichia coli. Briefly: Growth inhibition of Escherichia coli ATCC 25922 incubated for 18 hrs. It counts as organism-based.
Series [7] has as its system Klebsiella pneumoniae. Briefly: Growth inhibition of Klebsiella pneumoniae ATCC 700603 incubated for 18 hrs. Format: organism-based.
The test system of series [8] is Acinetobacter baumannii. The series can be described thus: Growth inhibition of Acinetobacter baumannii ATCC 19606 incubated for 18 hrs without shaking by absorbance based monochromator plate reader analysis. It counts as organism-based, ATCC 19606 = CIP 70.34 = JCM 6841. The following applies: in vitro.
The test system of series [9] is Pseudomonas aeruginosa. The series can be described thus: Growth inhibition of Pseudomonas aeruginosa ATCC 27853 incubated for 18 hrs. It counts as organism-based.
In series [10] the test system is Staphylococcus aureus. Briefly: Growth inhibition of methicillin-resistant Staphylococcus aureus ATCC 43300 incubated for 18 hrs. It counts as organism-based.
A short description of series [11]: Cytotoxicity against HEK293 cells assessed as decrease in cell viability after 20 hrs by resazurin dye-based fluorescence assay. The conditions noted are these: human. In general terms: Alamar Blue is a resazurin reagent that responds to reducing activity.
A short description of series [12]: Haemolytic activity in sheep erythrocytes assessed as induction of haemolysis at 5 ug/ml incubated for 2 hrs relative to control. The conditions noted are these: read-out: Activity. It counts as cell-based, Ovis aries, Erythrocyte.
The nature of series [13]: Haemolytic activity in sheep erythrocytes assessed as induction of haemolysis at 50 ug/ml incubated for 2 hrs relative to control. It counts as cell-based, Ovis aries, Erythrocyte. The following applies: read-out: Activity.

Where only a bound is given, the exact number is not on record here.

Broadly, the CC50 is the concentration that lowers cell viability or growth by half. Consider `CC(C)CCOc1ccc2ccccc2c1-c1c(OCc2cn([C@H](CCCCN)C(=O)N[C@H](CCCNC(=N)N)Cn3cc(CCc4ccccc4)nn3)nn2)ccc2ccccc12.Cl.Cl`, for which the MIC in [1] is 4 µg/mL; in series [2] it was 4 µg/mL; in series [3] it was 4 µg/mL; in series [4], 16 µg/mL; in [5], 16 µg/mL; in series [6] it was more than 32 µg/mL. The MIC in series [7] is more than 32 µg/mL; in series [8], 8 µg/mL; in series [9] it was 16 µg/mL; in series [10], 2 µg/mL. Also, in series [11], the CC50 at 20 h was more than 32 µg/mL. In addition, the hemolysis at 2 h, 5 ug/ml in [12] worked out at 1.5%. Further, the hemolysis at 2 h, 50 ug/ml in series [13] was found to be 75.2%.

`CC(C)CCOc1ccc2ccccc2c1-c1c(OCc2cn([C@H](CCCNC(=N)N)C(=O)NCCc3ccccc3)nn2)ccc2ccccc12.Cl`: the MIC in series [1] was 8 µg/mL; in [2], 4 µg/mL; in [3], 16 µg/mL; in series [4] it was 16 µg/mL; in series [5] it was 64 µg/mL; in series [6] it was more than 32 µg/mL. Further, the MIC in series [7] was more than 32 µg/mL; in [8], more than 32 µg/mL; in series [9] it was more than 32 µg/mL; in series [10] it was 8 µg/mL. Besides, the CC50 at 20 h in [11] is more than 32 µg/mL. Besides, the hemolysis at 2 h, 5 ug/ml in series [12] came out at 0.1%. Besides, in [13], the hemolysis at 2 h, 50 ug/ml was 55.2%.

Turning to `CC(C)CCOc1ccc2ccccc2c1-c1c(OCc2cn([C@H](CCCNC(=N)N)C(=O)N[C@H](CCCCN)Cn3cc(CC4CCCCC4)nn3)nn2)ccc2ccccc12.Cl.Cl`, the MIC in series [1] is 4 µg/mL; in series [2], 4 µg/mL; in series [3], 2 µg/mL; in [4], 8 µg/mL; in series [5], 8 µg/mL; in series [6], more than 32 µg/mL. In addition, the results for the MIC in [7], in [8] and in series [9] were more than 32 µg/mL, 32 µg/mL and 32 µg/mL, respectively. Moreover, in series [11], the CC50 at 20 h is more than 32 µg/mL. For the same compound, the hemolysis at 2 h, 5 ug/ml in series [12] was found to be 1.8%. The hemolysis at 2 h, 50 ug/ml in series [13] worked out at 71.5%.

Regarding `CC(C)CCOc1ccccc1-c1ccccc1OCc1cn([C@H](CCCNC(=N)N)C(=O)NCCc2ccc(F)cc2)nn1.Cl`, the MIC in [1] is 4 µg/mL; in series [2], 4 µg/mL; in series [3] it was 4 µg/mL; in [4], 64 µg/mL; in series [5], 64 µg/mL; in series [6] it was more than 32 µg/mL. Further, the MIC in series [7] was more than 32 µg/mL; in series [8], more than 32 µg/mL; in series [9], more than 32 µg/mL; in [10] it was 16 µg/mL. Also, the CC50 at 20 h in [11] came to 19.1 µg/mL.

As for `CCCN(CC1CC1)C(=O)[C@@H](CCCNC(=N)N)n1cc(COc2ccccc2-c2ccccc2OCCC(C)C)nn1.Cl`, the MIC is 4 µg/mL in [1]; 4 µg/mL in [2]; 2 µg/mL in [3]; 16 µg/mL in series [4]; 16 µg/mL in series [5]; more than 32 µg/mL in series [6]. The MIC in [7] is more than 32 µg/mL; in series [8], more than 32 µg/mL; in series [9] it was more than 32 µg/mL; in series [10] it was 8 µg/mL. The CC50 at 20 h in series [11] is 19.7 µg/mL.

For `CC(C)CCOc1ccccc1-c1ccccc1OCc1cn([C@H](CCCNC(=N)N)C(=O)N[C@H](CCCCN)Cn2cc(Cc3ccccc3)nn2)nn1.Cl.Cl`, the MIC is 8 µg/mL in series [1]; 8 µg/mL in series [2]; 4 µg/mL in series [3]; 32 µg/mL in [4]; 16 µg/mL in [5]; more than 32 µg/mL in [6]. Besides, the MIC in [7] came to 32 µg/mL; in [8], 32 µg/mL; in [9], 16 µg/mL; in series [10], 8 µg/mL. In addition, in series [11], the CC50 at 20 h is more than 32 µg/mL.

As to `CC(C)CCOc1ccc2ccccc2c1-c1c(OCc2cn([C@H](CCCNC(=N)N)C(=O)N[C@H](CCCCN)Cn3cc(CCc4ccccc4)nn3)nn2)ccc2ccccc12.Cl.Cl`, the MIC in [1] was 4 µg/mL; in series [2], 4 µg/mL; in series [3] it was 2 µg/mL; in [4] it was 16 µg/mL; in series [5], 16 µg/mL; in series [6], more than 32 µg/mL. Also, the MIC was more than 32 µg/mL in series [7], 32 µg/mL in [8], 32 µg/mL in [9] and 4 µg/mL in series [10]. Also, the CC50 at 20 h in [11] was more than 32 µg/mL.

Take `CC(C)CCOc1ccccc1-c1ccccc1OCc1cn([C@H](CCCNC(=N)N)C(=O)Nc2ccccc2)nn1.Cl`: the MIC in [1] was 2 µg/mL; in series [2], 2 µg/mL; in [3], 2 µg/mL; in [4], 16 µg/mL; in series [5], 32 µg/mL; in series [6], more than 32 µg/mL. In addition, the MIC was more than 32 µg/mL in [7], more than 32 µg/mL in series [8], more than 32 µg/mL in series [9] and 8 µg/mL in series [10]. Also, the CC50 at 20 h in series [11] was determined as 21.6 µg/mL.

For `CC(C)CCOc1ccc2ccccc2c1-c1c(OCc2cn([C@H](CCCCN)C(=O)N[C@H](CCCNC(=N)N)C(=O)NCc3ccccc3)nn2)ccc2ccccc12.Cl.Cl`, the MIC in series [1] is 8 µg/mL; in [2], 8 µg/mL; in [3] it was 8 µg/mL; in series [4] it was 16 µg/mL; in series [5], 16 µg/mL; in series [6], more than 32 µg/mL. Moreover, the MIC was determined as 32 µg/mL in series [7], 32 µg/mL in [8], 32 µg/mL in series [9] and 4 µg/mL in series [10]. Further, the CC50 at 20 h in series [11] is 17.4 µg/mL.

For `CC(C)CCOc1ccccc1-c1ccccc1OCc1cn([C@H](CCCNC(=N)N)C(=O)N[C@H](CCCCN)Cn2cc(C3CCCCC3)nn2)nn1.Cl.Cl`, the MIC in series [1] is 8 µg/mL; in series [2], 8 µg/mL; in series [3], 2 µg/mL; in series [4], 8 µg/mL; in [5] it was 16 µg/mL; in series [6], 16 µg/mL. The MIC in series [7] amounted to 16 µg/mL; in series [8], 16 µg/mL; in series [9] it was 8 µg/mL; in [10], 4 µg/mL. Besides, in series [11], the CC50 at 20 h is more than 32 µg/mL.

For `CC(C)CCOc1ccccc1-c1ccccc1OCc1cn([C@H](CCCNC(=N)N)C(=O)NCC2CCCCC2)nn1.Cl`, the MIC is 4 µg/mL in series [1]; 8 µg/mL in series [2]; 8 µg/mL in [3]; 32 µg/mL in [4]; 64 µg/mL in series [5]; more than 32 µg/mL in series [6]. Besides, the MIC in series [7] was more than 32 µg/mL; in series [8], more than 32 µg/mL; in series [9], more than 32 µg/mL; in [10], 4 µg/mL. Moreover, in [11], the CC50 at 20 h came to 16.9 µg/mL.

Turning to `CC(C)CCOc1ccc2ccccc2c1-c1c(OCc2cn([C@H](CCCCN)C(=O)N[C@H](CCCNC(=N)N)Cn3cc(CC4CCCCC4)nn3)nn2)ccc2ccccc12.Cl.Cl`, the MIC is 4 µg/mL in [1]; 4 µg/mL in series [2]; 4 µg/mL in [3]; 16 µg/mL in series [4]; 16 µg/mL in series [5]; more than 32 µg/mL in [6]. In addition, the MIC in series [7] was more than 32 µg/mL; in [8], 8 µg/mL; in [9], 32 µg/mL; in [10], 2 µg/mL. Further, in [11], the CC50 at 20 h worked out at 16.6 µg/mL.

Consider `CC(C)CCOc1ccccc1-c1ccccc1OCc1cn([C@H](CCCNC(=N)N)C(=O)N[C@H](CCCCN)Cn2cc(CC3CCCCC3)nn2)nn1.Cl.Cl`, for which the MIC in series [1] amounted to 4 µg/mL; in series [2], 4 µg/mL; in series [3], 2 µg/mL; in series [4] it was 8 µg/mL; in series [5], 16 µg/mL; in [6] it was 16 µg/mL. For the same compound, the MIC in [7] was determined as 16 µg/mL; in series [8], 16 µg/mL; in series [9] it was 16 µg/mL; in series [10] it was 8 µg/mL. Moreover, in series [11], the CC50 at 20 h was more than 32 µg/mL. In addition, the hemolysis at 2 h, 5 ug/ml in [12] turned out to be 1.6%. The hemolysis at 2 h, 50 ug/ml in series [13] worked out at 33.7%.

In the case of `COc1cc(NC(=O)[C@@H](CCCNC(=N)N)n2cc(COc3ccccc3-c3ccccc3OCCC(C)C)nn2)cc(OC)c1.Cl`, the MIC in series [1] is 4 µg/mL; in series [2], 4 µg/mL; in series [3], 4 µg/mL; in series [4], 32 µg/mL; in series [5], 32 µg/mL; in series [6] it was more than 32 µg/mL. The MIC in series [7] was more than 32 µg/mL; in series [8], more than 32 µg/mL; in [9], more than 32 µg/mL; in series [10], 8 µg/mL. Besides, the CC50 at 20 h in series [11] was 12.2 µg/mL.
